This note sets out measurements from patent US11925632B2, “Isoquinoline derivatives for use in treating GLUT1 deficiency syndrome” (GLIAPHARM SA, priority 2019, dated 2024).

For this experiment, the system named is primary astrocytes. The experiment can be described thus: Intracellular glycogen quantification. It is filed as cell-based, mouse. Conditions: 10 μM, 3 h, vs vehicle. How it is done:
Primary cultures of cerebrocortical astrocytes were obtained from 1 to 2-day-old OF1 mouse pups (Charles River). Briefly, cortices were isolated and minced in small pieces under a dissecting microscope. The cells were incubated for 30 min at 37° C. in a solution containing 20 U/ml papain, 1 mM L-cysteine and 10 kU/ml DNase I. After dissociation, papain activity was stopped by the addition of fetal calf serum (FCS). Single-cell suspension was then obtained by mechanical dissociation, which consisted in cells trituration in a DMEM D7777 medium supplemented with 44 mm NaHCO3, 10 ml/L antibiotic/antimycotic solution and 10% FCS. […]
Astrocytes grown on 12-well plates were used for intracellular glycogen quantifications. […]
First, the amount of proteins in each sample was quantified to assess whether harvested astrocytes from primary cell cultures yielded enough and equivalent amounts of proteins on each replicates. Proteins were quantified using the micro BCA Protein Assay kit (Thermo Scientific), according to manufacturer's instructions. Next, intracellular glycogen concentrations were quantified using a 250 μl-aliquot of the same stimulated, thawed, and sonicated cell lysate. […] Fluorescence intensity (340 nm excitation/440 nm emission) was measured using a Safire 2 spectrophotometer. […]

With `COc1cc2ccnc(Nc3ccc(OC(F)(F)F)cc3)c2cc1OC` [Example 1, 6,7-dimethoxy-N-(4-(trifluoromethoxy)phenyl)isoquinolin-1-amine], the Intracellular glycogen levels result was “significantly enhances the degradation of intracellular glycogen”.
